We go through 25 compounds from BindingDB's records for doi:10.1016/j.bioorg.2016.07.005 (Hazara University, 2016).

One test has as its target Acetylcholinesterase (Tetronarce californica, UniProt P04058). Briefly: Acetylcholinesterase Assay. Particulars: pH 7.7. How it is done:
Total volume of the reaction mixture was 100 µL. It contained 60 µL Na2HPO4 buffer with concentration of 50 mM and pH 7.7. 10 µL test compound (0.5 mM well-1) was added, followed by the addition of 10 µL (0.005 unit well-1) enzyme. […] Then contents were pre-incubated for 10 min at 37 °C. The reaction was initiated by the addition of 10 µL of 0.5 mM well-1 substrate (acetylthiocholine iodide), followed by the addition of 10 µL DTNB (0.5 mM well-1). […] All experiments were carried out with their respective controls in triplicate.

The target in the next test is Cholinesterase (Homo sapiens, UniProt P06276). As to the kind of experiment: Butyrylcholinesterase Assay. Particulars: pH 7.7. How it is done:
Total volume of the reaction mixture was 100 µL containing 60 µL, Na2HPO4 buffer, 50 mM and pH 7.7. Ten µL test compound 0.5 mM well-1 was added followedby the addition of 10 µL (0.5 unit well-1) BChE (Sigma Inc.). […] The reaction was initiated by the addition of 10 µL of 0.5 mM well-1 substrate (butyrylthiocholine chloride). Followed by the addition of 10 µL DTNB, 0.5 mM well-1. […] All experiments were carried out with their respective controls in triplicate.

Acetylcholinesterase, sequence (P04058 whole entry): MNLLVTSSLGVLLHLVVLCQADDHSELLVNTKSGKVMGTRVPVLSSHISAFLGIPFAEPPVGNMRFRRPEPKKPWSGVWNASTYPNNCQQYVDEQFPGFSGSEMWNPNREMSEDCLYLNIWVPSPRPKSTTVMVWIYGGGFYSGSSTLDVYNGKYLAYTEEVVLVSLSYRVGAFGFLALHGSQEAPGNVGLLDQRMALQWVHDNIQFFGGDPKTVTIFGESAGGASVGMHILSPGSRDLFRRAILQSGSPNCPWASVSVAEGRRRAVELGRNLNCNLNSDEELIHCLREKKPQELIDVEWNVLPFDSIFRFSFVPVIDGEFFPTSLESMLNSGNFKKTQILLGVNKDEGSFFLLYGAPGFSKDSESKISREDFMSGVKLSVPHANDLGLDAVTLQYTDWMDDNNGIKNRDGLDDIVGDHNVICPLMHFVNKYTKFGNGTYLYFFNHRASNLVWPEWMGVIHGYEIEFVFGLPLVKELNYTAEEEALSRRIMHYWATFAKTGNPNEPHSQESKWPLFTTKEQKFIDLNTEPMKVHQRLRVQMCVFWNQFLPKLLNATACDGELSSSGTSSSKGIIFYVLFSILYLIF
Cholinesterase, sequence (P06276 whole entry): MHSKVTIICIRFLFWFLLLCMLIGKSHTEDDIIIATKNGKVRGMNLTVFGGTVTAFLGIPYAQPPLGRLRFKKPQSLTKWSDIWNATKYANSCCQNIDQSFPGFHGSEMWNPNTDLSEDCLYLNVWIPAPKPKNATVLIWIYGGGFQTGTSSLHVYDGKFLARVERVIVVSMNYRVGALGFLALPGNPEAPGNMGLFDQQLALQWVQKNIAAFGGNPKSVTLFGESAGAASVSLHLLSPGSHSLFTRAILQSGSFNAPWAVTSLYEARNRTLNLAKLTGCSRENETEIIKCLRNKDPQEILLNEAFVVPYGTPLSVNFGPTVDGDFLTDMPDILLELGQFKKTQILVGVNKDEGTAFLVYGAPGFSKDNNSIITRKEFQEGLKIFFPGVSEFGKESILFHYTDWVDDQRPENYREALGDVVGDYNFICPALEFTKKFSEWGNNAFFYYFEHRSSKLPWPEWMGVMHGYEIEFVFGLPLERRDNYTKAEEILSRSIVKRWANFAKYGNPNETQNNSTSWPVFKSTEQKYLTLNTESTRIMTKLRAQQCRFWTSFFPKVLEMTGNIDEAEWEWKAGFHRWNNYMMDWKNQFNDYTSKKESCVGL

As to `COc1cccc(OC)c1/C=N\NC(=O)c1ccccc1O` [N'-[(Z)-(2,6-dimethoxyphenyl)methylidene]-2-hydroxybenzohydrazide (2)], the IC50 (as a rule, the concentration that inhibits the measured activity by half) at Acetylcholinesterase stood at 461 µM; against Cholinesterase it was 79.5 µM. As for `O=C(N/N=C\c1ccc(F)c(Br)c1)c1ccccc1O` [N'-[(Z)-(3-bromo-4-fluorophenyl)methylidene]-2-hydroxybenzohydrazide (25)], the IC50 at Acetylcholinesterase was found to be 311 µM. For `CC(C)(C)c1ccc(/C=N\NC(=O)c2ccccc2O)cc1` [N'-{(Z)-[4-(tert-butyl)phenyl]methylidene}-2-hydroxybenzohydrazide (13)], the IC50 on Acetylcholinesterase stood at 92.4 µM; against Cholinesterase, 6.51 µM. With `O=C(N/N=C\c1cccc(Br)c1)c1ccccc1O` [N'-[(Z)-(3-bromophenyl)methylidene]-2-hydroxybenzohydrazide (19)], the IC50 was found to be 156 µM on Acetylcholinesterase and 121 µM at Cholinesterase. `O=C(N/N=C\c1ccc(Br)cc1F)c1ccccc1O` [N'-[(Z)-(4-bromo-2-fluorophenyl)methylidene]-2-hydroxybenzohydrazide (26)]: the IC50 against Acetylcholinesterase was 369 µM; at Cholinesterase, 452 µM. As for `O=C(N/N=C\c1c2ccccc2cc2ccccc12)c1ccccc1O` [(Z)-N'-(anthracen-10-ylmethylene)-2-hydroxybenzohydrazide (10)], the IC50 at Acetylcholinesterase is 4.12 µM. `O=C(N/N=C\c1ccc(OCc2ccccc2)cc1)c1ccccc1O` [N'-{(Z)-[4-(benzyloxy)phenyl]methylidene}-2-hydroxybenzohydrazide (3)]: the figures for the IC50 against Acetylcholinesterase and at Cholinesterase were 8.12 µM and 37.8 µM, respectively. Turning to `O=C(N/N=C\c1ccc(Cl)cc1Cl)c1ccccc1O` [N'-[(Z)-(2,4-dichlorophenyl)methylidene]-2-hydroxybenzohydrazide (6)], the IC50 against Acetylcholinesterase turned out to be 18.1 µM; against Cholinesterase, 43.2 µM. `COc1ccc(/C=N\NC(=O)c2ccccc2O)cc1Br` [N'-[(Z)-(3-bromo-4-methoxyphenyl)methylidene]-2-hydroxybenzohydrazide (17)]: the results for the IC50 at Acetylcholinesterase and against Cholinesterase were 19.8 µM and 38.4 µM, respectively. Take `O=C(N/N=C\c1cccc(C(F)(F)F)c1)c1ccccc1O` [2-Hydroxy-N'-{(Z)-[3-(trifluoromethyl)phenyl]methylidene} benzohydrazide (14)]: the IC50 against Acetylcholinesterase turned out to be 56.1 µM; on Cholinesterase, 112 µM. With `O=C(N/N=C\c1ccco1)c1ccccc1O` [N'-[(Z)-2-furylmethylidene]-2-hydroxybenzohydrazide (11)], on Cholinesterase, the IC50 was 418 µM. `O=C(N/N=C\c1ccc(C(F)(F)F)cc1)c1ccccc1O` [2-Hydroxy-N'-{(Z)-[4-(trifluoromethyl)phenyl]methylidene} benzohydrazide (18)]: the IC50 on Acetylcholinesterase came to 48.5 µM; on Cholinesterase, 213 µM. In the case of `CCOc1ccccc1/C=N\NC(=O)c1ccccc1O` [N'-[(Z)-(2-ethoxyphenyl)methylidene]-2-hydroxybenzohydrazide (20)], the IC50 amounted to 415 µM against Acetylcholinesterase and 116 µM against Cholinesterase. On to `O=C(N/N=C\c1cc(F)ccc1Br)c1ccccc1O` [N'-[(Z)-(2-bromo-5-fluorophenyl)methylidene]-2-hydroxybenzohydrazide (21)], for which the IC50 worked out at 312 µM on Acetylcholinesterase and 267 µM against Cholinesterase. The compound `O=C(N/N=C\c1cccs1)c1ccccc1O` [2-Hydroxy-N'-[(Z)-2-thienylmethylidene]benzohydrazide (23)] returned an IC50 on Acetylcholinesterase of 430 µM. `O=C(N/N=C\c1ccc(O)cc1)c1ccccc1O` [2-Hydroxy-N'-[(Z)-(4-hydroxyphenyl)methylidene]benzohydrazide (28)] had an IC50 at Cholinesterase of 424 µM. Turning to `CCOc1ccc(/C=N\NC(=O)c2ccccc2O)cc1` [N'-[(Z)-(4-ethoxyphenyl)methylidene]-2-hydroxybenzohydrazide (8)], the IC50 was 218 µM against Acetylcholinesterase and 116 µM against Cholinesterase.

For `CCCCOc1ccc(/C=N\NC(=O)c2ccccc2O)cc1` [N0-[(Z)-(4-butoxyphenyl)methylidene]-2-hydroxybenzohydrazide (7)], the values for the IC50 against Acetylcholinesterase and against Cholinesterase were 15.4 µM and 41.8 µM, respectively. For the compound `COc1cccc(/C=N\NC(=O)c2ccccc2O)c1OC` [N'-[(Z)-(2,3-dimethoxyphenyl)methylidene]-2-hydroxybenzohydrazide (15)], at Cholinesterase, half-maximal inhibition (IC50) was put at 61.6 µM.

As for `O=C(N/N=C\c1cccc(O)c1)c1ccccc1O` [2-Hydroxy-N'-[(Z)-(3-hydroxyphenyl)methylidene]benzohydrazide (27)], at Acetylcholinesterase, the IC50 was determined as 355 µM.

On Cholinesterase, `COc1ccc(/C=N\NC(=O)c2ccccc2O)cc1OCc1ccccc1` [N'-{(Z)-[3-(benzyloxy)-4-methoxyphenyl]methylidene}-2-hydroxybenzohydrazide (16)] registered an IC50 of 86.2 µM. `CC(C)c1ccc(/C=N\NC(=O)c2ccccc2O)cc1` [2-Hydroxy-N'-[(Z)-(4-isopropylphenyl)methylidene]benzohydrazide (12)]: the figures for the IC50 on Acetylcholinesterase and on Cholinesterase were 39.8 µM and 71.8 µM, respectively. Compound `CSc1ccc(/C=N\NC(=O)c2ccccc2O)cc1` [2-Hydroxy-N'-{(Z)-[4-(methylsulfanyl)phenyl]methylidene} benzohydrazide (22)] displayed an IC50 at Acetylcholinesterase of 436 µM. `COc1ccc(/C=N\NC(=O)c2ccccc2O)c(OC)c1` [N'-[(Z)-(2,4-dimethoxyphenyl)methylidene]-2-hydroxybenzohydrazide (9)]: the IC50 at Cholinesterase stood at 293 µM. With `O=C(N/N=C\c1cc(Cl)cc(Cl)c1O)c1ccccc1O` [N'-[(Z)-(3,5-dichloro-2-hydroxyphenyl)methylidene]-2-hydroxybenzohydrazide (24)], the IC50 against Acetylcholinesterase turned out to be 8.41 µM; against Cholinesterase, 9.22 µM.
